Measured values: patent publication US6656694B2, “Method for identifying a ligand for a biological substrate” (Theravance, Inc., priority 2001, dated 2003)
pKd: −log10 of the molar value.

How the values were obtained:
[1] = biological target: T1, human cloned muscarinic receptor (M2), second binding site (Homo sapiens, UniProt P08172); experiment: Screening of candidate compounds: effect on 3H-NMS binding in the presence of multibinding Compound A; details: candidate 500 nM; Compound A 200 nM; 3H-NMS 10 nM; PBS pH 7.4; CHO membranes; 1 hour at 37° C.; B and C relative to each other
T1 sequence (P08172 1-466): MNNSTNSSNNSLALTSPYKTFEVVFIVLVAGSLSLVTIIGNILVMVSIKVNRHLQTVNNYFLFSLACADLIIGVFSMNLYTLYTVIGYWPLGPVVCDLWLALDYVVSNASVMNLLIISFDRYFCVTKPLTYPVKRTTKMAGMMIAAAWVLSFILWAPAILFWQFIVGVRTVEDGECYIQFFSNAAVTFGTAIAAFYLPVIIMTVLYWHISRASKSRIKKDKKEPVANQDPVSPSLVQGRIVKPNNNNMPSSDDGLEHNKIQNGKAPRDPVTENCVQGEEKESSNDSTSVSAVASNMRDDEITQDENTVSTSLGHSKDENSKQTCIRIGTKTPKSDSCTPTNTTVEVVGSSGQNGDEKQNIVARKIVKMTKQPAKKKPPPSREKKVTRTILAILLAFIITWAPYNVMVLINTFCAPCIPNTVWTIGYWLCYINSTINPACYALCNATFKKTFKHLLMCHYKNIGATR
Experimental: Into each well in a 96 well place, the following are added:
a) Compound A, such that the final concentration in the well is 200 nM (10 times the Kd of Compound A) in phosphate buffered saline at pH 7.4;
b) tritiated N-methyl scopalamine (^3H-NMS), such that the final concentration in each well is 10 nM (0.5 times the Kd of ^3H-NMS);
c) a candidate compound at a final concentration of 500 nM, the candidate compound being selected from amines including Compound B and Compound C (which are commercially available); [drawing 5]
(§1) d) membrane containing human cloned muscarinic receptor (prepared by expressing M2 coding plasmid in CHO cells using well-known procedures and reagents).
(§2) The 96 well plate is then incubated for 1 hour at 37° C. After incubation, the membranes are filtered to separate bound from unbound ^3H-NMS. Scintillant is then added, and the plate is placed in a counter to measure the radioactivity in each well.
The amount of radioactivity determined for each well is then compared to a pre-determined amount of radioactivity measured using the above procedure in the absence of a candidate compound. […]

[2] = biological target: T2, human cloned muscarinic receptor (M2) (Homo sapiens, UniProt P08172); experiment: Binding of Compound D to the receptor measured using 3H-NMS; details: stated more potent than Compound A
T2 sequence (P08172 1-466): T1 sequence (P08172 1-466)
Experimental: as §1, §2
The binding of Compound D to the receptor is then measured using ^3H-NMS.

binding to the receptor (radioactivity of bound 3H-NMS observed) [1]	pKd [2]	Compound
bind weakly	–	O=C(Nc1ccc2ccccc2c1)C1CC(O)CN1 (stereo not drawn) [Compound B]
–	8.70	COc1cccc(OC)c1CN1CCC(N(C)CCCCCCCN2CCC(OC(=O)Nc3ccccc3-c3ccccc3)CC2)CC1 [Compound D]
bind strongly	–	CNC1CCN(Cc2c(OC)cccc2OC)CC1 [Compound C]
